In patent US10780094B2, “Use of carbonic anhydrase inhibitors for treatment of neurological and psychiatric disorders” (New York University, priority 2016, dated 2020):

Tests used:
TgSwDI mice = assay type: in vivo; settings: given with diet
Procedure: The grip strength test was used to measure neuromuscular function and specifically assesses maximal muscle/grip force of the forelimbs (only) or both the fore and hind limbs combined. Motor performance was assessed by the horizontal grasping force applied by the rodent to a specialized stainless steel grid that is connected to a sensitive, electronic force sensor (Bioseb In Vivo Research Instruments). […] With the base of the tail held gently but firmly between thumb and forefinger, the mouse was pulled gently back away from the grid, ensuring that the torso remains horizontal, until the animal loses grip of the grid. For combined fore and hindlimb measurement, the procedure was identical to the forelimb-only procedure except that mouse was lowered to allow both fore and hind paws to attach to the grid before any measurements were taken. […]
To ensure maximal reliability, each measurement of interest (e.g., forelimb or combined) was repeated consecutively for each mouse to obtain 5-6 replicates. […] A truncated mean (mean of replicates after the smallest and largest readings were removed) was calculated for each subject. […]
Mice in each treatment group (WT, Tg, Tg+MTZ, Tg+ATZ) were counted before the beginning of the treatment, at month 2, and at sacrifice (month 16). […]

SH-SY5Y cells = experiment: ATP measurement (CellTiter-Glo); assay type: cell-based, human; settings: drug in combination with the peptide; 3 hours
Procedure: (§1) Steady state levels of ATP were estimated using the Cell Titter-Glo, according to manufacturer's instructions. Briefly, 5×10^3 cells per well of both D3 and SHSY cells were plated on 96-wells plates. The day after, cells were treated with either 10 μM Q22 or 50 μM Ab42 peptides, respectively. Peptides were added alone or in combination with increasing concentrations of MTZ (100 and 300 μM) or AZT (30 and 300 μM). Controls were treated with either DMSO or 5 μM oligomycin. After 3 hours of treatment, the plates containing the cells were equilibrated to room temperature for 30 minutes prior to addition of the luciferin/luciferase/cell lysis mixture. Absolute luminescence from quadruplicate experiments was recorded using a SpectraMax plate reader (Molecular Devices, Sunnyvalem Calif., US).

D3 cells = experiment: ATP measurement (CellTiter-Glo); assay type: cell-based, human; settings: co-treatment with the peptide; 3 hours
Procedure: as §1

M059K Glioma cells = experiment: Cell Death ELISAplus, Aβ-induced apoptosis (fragmented nucleosomes); assay type: cell-based, human; settings: for apoptosis in response to Aβ: Example 2, glial cells, FIG. 17C
Procedure: The extent of apoptosis caused by Aβ in the presence or absence of MTZ was assessed by quantitation of nucleosome formation using Cell Death ELISA^plus (Roche Applied Science, Indianapolis, Ind.). Briefly, after incubation with the peptides, plates were centrifuged in a Beckman J-6B centrifuge (10 min; 1,000 rpm), cells lysed, and DNA-histone complexes (nucleosomes) quantitated by Cell Death ELISA, as previously described (Fossati et al., 2010).

[1] = tested on: mitochondria isolated from SH-SY5Y neuronal cells; experiment: Mitochondrial H2O2 production (Amplex Red) after Aβ challenge; assay type: cell-based, human; settings: for Aβ-induced H2O2 production: Example 2, both drugs at the proposed concentrations
Procedure: Production of H2O2 from isolated mitochondria was measured using Amplex Red Hydrogen Peroxide/Peroxidase Assay (Life Technologies). Cells were treated with Aβ peptides, in the presence or absence of MTZ. After 16 hours of treatment, the mitochondrial fraction was separated from nuclear and cytoplasmic fractions as previously described (Fossati et al., 2013). Protein concentration in the mitochondrial fraction was measured by BCA assay (Thermo Scientific, Rockford, Ill.), in order to include the same amount of mitochondria in each sample. Functional mitochondrial fractions were distributed in a 96 well plate with Reaction Buffer and Amplex Red solution following the manufacturer's specifications. The plate was incubated in the dark at room temperature for 30 minutes before colorimetric evaluation of the Amplex Red reaction at 560 nm.
Cells were plated on 6-wells plates and treated with the peptides and/or drugs for the experimental times. Plates were centrifuged for 10 min at 1.000 RPM and washed twice with PBS 1×. After that, 500 μL of homogenization buffer (75 mM sucrose, 225 mM mannitol, 5 mM Tris-HCl pH=7.4, 1 mM PMSF and protease inhibitor cocktail) was added. Cells were scraped in this buffer, collected in glass tubes and grinded exactly 80 times with a pellet pestle, keeping everything always on ice. Cells were then centrifuged at 2.800 RPM for 5 min at 4° C. The supernatant was collected and centrifuged again at 2.800 RPM for 5 min at 4° C. The supernatant was again collected and centrifuged at 10.500 RPM for another 5 min at 4° C. After this, the supernatant was discarded and the pellet was re-suspended in 100 μL of homogenization buffer. The samples were centrifuged again at 10.500 RPM for 10 min at 4° C., the supernatant was discarded and the pellets (mitochondrial fractions) were re-suspended on 50 μL of homogenization buffer. A protein concentration assay on mitochondrial protein was performed, using the Pierce BCA Protein Assay Kit (ThermoFisher, Waltham, Mass., US) and following the instructions provided by the manufacturer. After that, mitochondrial fractions containing equal amounts of mitochondrial proteins were placed on 96-wells microplate absorbance microtiter (ThermoFisher, Waltham, Mass., US) and the AmplexRed assay was ran, following the instructions provided by the manufacturer. Absorbance was measured by using a FlexStation (Molecular Devices, Sunnyvalem Calif., US).

Structure (SMILES)	signs of toxicity, weight loss or death (TgSwDI mice)	ATP levels under Aβ challenge (SH-SY5Y cells)	Q22-induced increase in steady state ATP levels (D3 cells)	apoptotic phenotype caused by the Aβ peptides (M059K Glioma cells; 100 μM MTZ, Aβ42 10 μM or Aβ40-Q22 50 μM, 3 days)	Aβ-mediated increase in fragmented nucleosomes (M059K Glioma cells; 300 μM MTZ, Aβ42 10 μM or Aβ40-Q22 50 μM, 3 days)	apoptosis in response to Aβ (M059K Glioma cells)	Aβ-induced increase in H2O2 production by isolated mitochondria ([1]; Example 1, Aβ with MTZ)	Aβ-induced H2O2 production [1]	H2O2 production, drug alone ([1]; MTZ alone, untreated cells)
CC(=O)/N=c1/sc(S(N)(=O)=O)nn1C [MTZ, methazolamide]	without showing signs of toxicity, weight loss or increased death of the animals	remained unchanged	unaffected	completely reverted the apoptotic phenotype	completely prevented	prevented	completely reverted	completely reverted	did not have any effect
CC(=O)Nc1nnc(S(N)(=O)=O)s1 [ATZ, acetazolamide]	without showing signs of toxicity, weight loss or increased death of the animals	remained unchanged	unaffected	–	–	prevented	–	completely reverted	–
